Legend:
[1] = target: T1, alpha-glucosidases from rat intestine; assay: p-nitrophenol release at […] nm; type: biochemical; conditions: 2 mM p-nitrophenyl-alpha-D-glucopyranoside; 0.1 M phosphate pH 6.8; crude intestinal extract
T1 construct: gene Si; crude rat intestinal extract (Sigma I1630); enzymes not separated

[2] = target: T2, alpha-glucosidases from Saccharomyces cerevisiae; assay: p-nitrophenol release at […] nm; type: biochemical; conditions: 2 mM p-nitrophenyl-alpha-D-glucopyranoside; 0.1 M phosphate pH 6.8
T2 construct: gene MAL12; commercial yeast enzyme (Sigma G5003), native

Rat intestine / α-Glucosidase enzymes / IC50 [1]: 18.6 µg/mL
S. cerevisiae / α-Glucosidase enzymes / IC50 [2]: 231.9 µg/mL
SMILES: C[C@H]1O[C@H](O[C@H]2[C@H](O)[C@@H](O)[C@@H](O[C@H]3[C@H](O)[C@@H](O)C(O)O[C@@H]3CO)O[C@@H]2CO)[C@H](O)[C@@H](O)[C@@H]1N[C@H]1C=C(CO)[C@@H](O)[C@H](O)[C@H]1O (some centres unmarked) [Acarbose]
